Test results published in patent US20190307776A1, “AZA-S[…] HUMAN IMMUNODEFICIENCY VIRUS REPLICATION” (priority 2016, published 2019).

The compounds below were run on recombinant NL4-3 virus (assay: HIV cell culture assay). Conditions: Human immunodeficiency virus 1, NL43, MT2.
Assay type: cell-based
Method: HIV cell culture assay—MT-2 cells and 293T cells were obtained from the NIH AIDS Research and Reference Reagent Program. MT-2 cells were propagated in RPMI 1640 media supplemented with 10% heat inactivated fetal bovine serum, 100 […]. The 293T cells were propagated in DMEM media supplemented with 10% heat inactivated fetal bovine serum (FBS), 100 units/ml penicillin G and 100 μg/ml streptomycin. The proviral DNA clone of NL4-3 was obtained from the NIH AIDS Research and Reference Reagent Program. A recombinant NL4-3 virus, in which a section of the nef gene from NL4-3 was replaced with the Renilla luciferase gene, was used as a reference virus. In addition, residue Gag P373 was converted to P373S. Briefly, the recombinant virus was prepared by transfection of the altered proviral clone of NL4-3. Transfections were performed in 293T cells using LipofectAMINE PLUS from Invitrogen (Carlsbad, Calif.), according to manufacturer's instruction. The virus was titered in MT-2 cells using luciferase enzyme activity as a marker. Luciferase was quantitated using the Dual Luciferase kit from Promega (Madison, Wis.), with modifications to the manufacturer's protocol. The diluted Passive Lysis solution was pre-mixed with the re-suspended Luciferase Assay Reagent and the re-suspended Stop & Glo Substrate (2:1:1 ratio). Fifty (50) μL of the mixture was added to each aspirated well on assay plates and luciferase activity was measured immediately on a Wallac TriLux (Perkin-Elmer). Antiviral activities of inhibitors toward the recombinant virus were quantified by measuring luciferase activity in cells infected for 4-5 days with NLRluc recombinants in the presence serial dilutions of the inhibitor.
In the case of `C=C(C)[C@@H]1CC[C@]2(CO)CC[C@]3(C)[C@H](CC[C@@H]4[C@@]5(C)CCN(C(=O)c6cccc(C(=O)O)c6)C(C)(C)C5CC[C@]43C)[C@@H]12` (stereo partly drawn) [Example 5, 3-((6aR,6bR,8aS,11R,11aR,11bR,13aR,13bR)-8a-(hydroxymethyl)-4,4,6a,6b,13b-pentamethyl-11-(prop-1-en-2-yl)icosahydro-1H-cyclopenta[5,6]naphtho[2,1-f]isoquinoline-3-carbonyl)benzoic acid], the EC50 is reported as 1250 nM.
In the case of `C=C(C)[C@@H]1CC[C@]2(CO)CC[C@]3(C)[C@H](CC[C@@H]4[C@@]5(C)CCN(S(=O)(=O)c6ccc(/C=C/C(=O)O)cc6)C(C)(C)C5CC[C@]43C)[C@@H]12` (stereo partly drawn) [Example 18, (E)-3-(4-(((6aR,6bR,8aS,11R,11aR,11bR,13aR,13bR)-8a-(hydroxymethyl)-4,4,6a,6b,13b-pentamethyl-11-(prop-1-en-2-yl)icosahydro-3H-cyclopenta[5,6]naphtho[2,1-f]isoquinolin-3-yl)sulfonyl)phenyl)acrylic acid], the EC50 is reported as 4200 nM.
Compound `C=C(C)[C@@H]1CC[C@]2(CO)CC[C@]3(C)[C@H](CC[C@@H]4[C@@]5(C)CCCN(S(=O)(=O)c6cccc(C(=O)O)c6)C(C)(C)C5CC[C@]43C)[C@@H]12` (stereo partly drawn) [Example 13, 3-(((7aR,7bR,9aS,12R,12aR,12bR,14aR,14bR)-9a-(hydroxymethyl)-5,5,7a,7b,14b-pentamethyl-12-(prop-1-en-2-yl)icosahydrocyclopenta[7,8]phenanthro[2,1-c]azepin-4(1H)-yl)sulfonyl)benzoic acid] has an EC50 of over 8000 nM.
`C=C(C)[C@@H]1CC[C@]2(CO)CC[C@]3(C)[C@H](CC[C@@H]4[C@@]5(C)CCN(S(=O)(=O)c6cccc(C(=O)O)c6)C(C)(C)C5CC[C@]43C)[C@@H]12` (stereo partly drawn) [Example 17, 3-(((6aR,6bR,8aS,11R,11aR,11bR,13aR,13bR)-8a-(hydroxymethyl)-4,4,6a,6b,13b-pentamethyl-11-(prop-1-en-2-yl)icosahydro-3H-cyclopenta[5,6]naphtho[2,1-f]isoquinolin-3-yl)sulfonyl)benzoic acid] showed an EC50 of 4940 nM.
Compound `C=C(C)[C@@H]1CC[C@]2(CO)CC[C@]3(C)[C@H](CC[C@@H]4[C@@]5(C)CCN(S(=O)(=O)c6ccc(C(=O)O)cc6)C(C)(C)C5CC[C@]43C)[C@@H]12` (stereo partly drawn) [Example 20, 4-(((6aR,6bR,8aS,11R,11aR,11bR,13aR,13bR)-8a-(hydroxymethyl)-4,4,6a,6b,13b-pentamethyl-11-(prop-1-en-2-yl)icosahydro-3H-cyclopenta[5,6]naphtho[2,1-f]isoquinolin-3-yl)sulfonyl)benzoic acid] has an EC50 of 3100 nM.
`C=C(C)[C@@H]1CC[C@]2(NCCN3CCS(=O)(=O)CC3)CC[C@]3(C)[C@H](CC[C@@H]4[C@@]5(C)CCN(c6ncc(C(=O)O)cn6)C(C)(C)[C@@H]5CC[C@]43C)[C@@H]12` [Example 53, 2-((4aR,6aR,6bR,8aS,11R,11aR,11bR,13aR,13bR)-8a-((2-(1,1-dioxidothiomorpholino)ethyl)amino)-4,4,6a,6b,13b-pentamethyl-11-(prop-1-en-2-yl)hexadecahydro-1H-cyclopenta[5,6]naphtho[2,1-f]isoquinolin-3(2H,4H,13bH)-yl)pyrimidine-5-carboxylic acid] gave an EC50 of 1 nM.
For `C=C(C)[C@@H]1CC[C@]2(CNCCCN3CCS(=O)(=O)CC3)CC[C@]3(C)[C@H](CC[C@@H]4[C@@]5(C)CCN(c6ccc(C(=O)O)nc6)C(C)(C)[C@@H]5CC[C@]43C)[C@@H]12` [Example 44, 5-((4aR,6aR,6bR,8aS,11R,11aR,11bR,13aR,13bR)-8a-(((3-(1,1-dioxidothiomorpholino)propyl)amino)methyl)-4,4,6a,6b,13b-pentamethyl-11-(prop-1-en-2-yl)hexadecahydro-1H-cyclopenta[5,6]naphtho[2,1-f]isoquinolin-3(2H,4H,13bH)-yl)picolinic acid], the EC50 was 7 nM.
For `C=C(C)[C@@H]1CC[C@]2(CO)CC[C@]3(C)[C@H](CC[C@@H]4[C@@]5(C)CCN(C(=O)c6ccc(C(=O)O)cc6)C(C)(C)C5CC[C@]43C)[C@@H]12` (stereo partly drawn) [Example 10, 4-((6aR,6bR,8aS,11R,11aR,11bR,13aR,13bR)-8a-(hydroxymethyl)-4,4,6a,6b,13b-pentamethyl-11-(prop-1-en-2-yl)icosahydro-1H-cyclopenta[5,6]naphtho[2,1-f]isoquinoline-3-carbonyl)benzoic acid], the EC50 was 320 nM.
With `C=C(C)[C@@H]1CC[C@]2(CNCCCN3CCS(=O)(=O)CC3)CC[C@]3(C)[C@H](CC[C@@H]4[C@@]5(C)CCN(CC(=O)O)C(C)(C)[C@@H]5CC[C@]43C)[C@@H]12` [Example 33, 2-((4aR,6aR,6bR,8aS,11R,11aR,11bR,13aR,13bR)-8a-(((3-(1,1-dioxidothiomorpholino)propyl)amino)methyl)-4,4,6a,6b,13b-pentamethyl-11-(prop-1-en-2-yl)hexadecahydro-1H-cyclopenta[5,6]naphtho[2,1-f]isoquinolin-3(2H,4H,13bH)-yl)acetic acid] the EC50 was over 3000 nM.
`C=C(C)[C@@H]1CC[C@]2(CNCCCN3CCS(=O)(=O)CC3)CC[C@]3(C)[C@H](CC[C@@H]4[C@@]5(C)CCN(c6ncc(C(=O)O)s6)C(C)(C)[C@@H]5CC[C@]43C)[C@@H]12` [Example 56, 2-((4aR,6aR,6bR,8aS,11R,11aR,11bR,13aR,13bR)-8a-(((3-(1,1-dioxidothiomorpholino)propyl)amino)methyl)-4,4,6a,6b,13b-pentamethyl-11-(prop-1-en-2-yl)hexadecahydro-1H-cyclopenta[5,6]naphtho[2,1-f]isoquinolin-3(2H,4H,13bH)-yl)thiazole-5-carboxylic acid] gave an EC50 of 4 nM.
Compound `C=C(C)[C@@H]1CC[C@]2(CO)CC[C@]3(C)[C@H](CC[C@@H]4[C@@]5(C)CCCN(S(=O)(=O)c6ccc(C)c(C(=O)O)c6)C(C)(C)C5CC[C@]43C)[C@@H]12` (stereo partly drawn) [Example 16, 5-(((7aR,7bR,9aS,12R,12aR,12bR,14aR,14bR)-9a-(hydroxymethyl)-5,5,7a,7b,14b-pentamethyl-12-(prop-1-en-2-yl)icosahydrocyclopenta[7,8]phenanthro[2,1-c]azepin-4(1H)-yl)sulfonyl)-2-methylbenzoic acid] has an EC50 of over 8000 nM.
`C=C(C)[C@@H]1CC[C@]2(CNCCCN3CCS(=O)(=O)CC3)CC[C@]3(C)[C@H](CC[C@@H]4[C@@]5(C)CCN(C(=O)c6ccc(C(=O)O)cc6)C(C)(C)[C@@H]5CC[C@]43C)[C@@H]12` [Example 30, 4-((4aR,6aR,6bR,8aS,11R,11aR,11bR,13aR,13bR)-8a-(((3-(1,1-dioxidothiomorpholino)propyl)amino)methyl)-4,4,6a,6b,13b-pentamethyl-11-(prop-1-en-2-yl)icosahydro-1H-cyclopenta[5,6]naphtho[2,1-f]isoquinoline-3-carbonyl)benzoic acid] was tested, and the EC50 was 110 nM.
With `C=C(C)[C@@H]1CC[C@]2(CO)CC[C@]3(C)[C@H](CC[C@@H]4[C@@]5(C)CCN(C(=O)CCCC(=O)O)C(C)(C)C5CC[C@]43C)[C@@H]12` (stereo partly drawn) [Example 8, 5-((6aR,6bR,8aS,11R,11aR,11bR,13aR,13bR)-8a-(hydroxymethyl)-4,4,6a,6b,13b-pentamethyl-11-(prop-1-en-2-yl)icosahydro-3H-cyclopenta[5,6]naphtho[2,1-f]isoquinolin-3-yl)-5-oxopentanoic acid] the EC50 was 1810 nM.
For `C=C(C)[C@@H]1CC[C@]2(CNCCCN3CCS(=O)(=O)CC3)CC[C@]3(C)[C@H](CC[C@@H]4[C@@]5(C)CCN(c6ccc(C(=O)O)cn6)C(C)(C)[C@@H]5CC[C@]43C)[C@@H]12` [Example 42, 6-((4aR,6aR,6bR,8aS,11R,11aR,11bR,13aR,13bR)-8a-(((3-(1,1-dioxidothiomorpholino)propyl)amino)methyl)-4,4,6a,6b,13b-pentamethyl-11-(prop-1-en-2-yl)hexadecahydro-1H-cyclopenta[5,6]naphtho[2,1-f]isoquinolin-3(2H,4H,13bH)-yl)nicotinic acid], the EC50 was 3 nM.
For `C=C(C)[C@@H]1CC[C@]2(CNCCCN3CCS(=O)(=O)CC3)CC[C@]3(C)[C@H](CC[C@@H]4[C@@]5(C)CCN(C(=O)CCC(C)(C)C(=O)O)C(C)(C)[C@@H]5CC[C@]43C)[C@@H]12` [Example 25, 5-((4aR,6aR,6bR,8aS,11R,11aR,11bR,13aR,13bR)-8a-(((3-(1,1-dioxidothiomorpholino)propyl)amino)methyl)-4,4,6a,6b,13b-pentamethyl-11-(prop-1-en-2-yl)hexadecahydro-1H-cyclopenta[5,6]naphtho[2,1-f]isoquinolin-3(2H,4H,13bH)-yl)-2,2-dimethyl-5-oxopentanoic acid], the EC50 was 120 nM.
`C=C(C)[C@@H]1CC[C@]2(CO)CC[C@]3(C)[C@H](CC[C@@H]4[C@@]5(C)CCCN(C(=O)c6cccc(C(=O)O)c6)C(C)(C)C5CC[C@]43C)[C@@H]12` (stereo partly drawn) [Example 2, 3-((7aR,7bR,9aS,12R,12aR,12bR,14aR,14bR)-9a-(hydroxymethyl)-5,5,7a,7b,14b-pentamethyl-12-(prop-1-en-2-yl)docosahydrocyclopenta[7,8]phenanthro[2,1-c]azepine-4-carbonyl)benzoic acid] was tested, and the EC50 was over 8000 nM.
